Patent publication US20250374926A1, “NOVEL DERIVATIVES OF NON-CODED AMINO ACIDS AND THEIR USE IN CROP PROTECTION” (FORTEPHEST LTD., priority 2022, published 2025)
Structures can show the parent of a compound that is named as a salt.

System: Lettuce seeds
Experiment: Filter paper bioassay on germination and early development of Lettuce seeds
Format: in vivo
Conditions: 144 h, lowest concentration causing malformation of radicle or shoots; visually assessed six days after beginning; 0 to 1 mmol/l; read-out: MEC, score (Minimal Effective Concentration, activity score) (converted)
Experimental: Materials: Seeds of Lettuce R. (Super-Jericho, non-sterilized) were obtained from Ben Shahar Moshe Ltd., 99% purity. The test compounds listed in Table 3 below were synthesized de novo or purchased from different vendors. Bioassays: Filter Paper Bioassays with Lettuce seeds were performed following Bertin et al. 2009 with modifications as described below. Seeds were placed on Whatman no. 1 filter paper (Whatman, Middlesex, U.K.) in Petri dishes (10 seeds per plate) with 2.0 ml of an aqueous solution of test material in a concentration ranging from 0 (control) to 1 mmol/l. The Petri dishes were arranged in a tray tilted at a 45-degree angle and were kept in the dark for 48 hours. Then trays with plates were transferred to the growth chamber with a 6/18 dark/light cycle for four days. Each experiment was performed in at least two repeats.
The development of plants' radicles and shoots was visually assessed six days after the beginning of the test to determine the Minimal Effective Concentration (MEC) of a test material. In the context of the invention, MEC is defined as the lowest concentration level of a test material that caused deviation (malformation of radicle or shoots).

Structure (SMILES)	minimal effective concentration
O=C(O)CS(=O)(=O)c1nc(Cl)sc1Cl [compound 7138, (2,5-dichloro-1,3-thiazol-4-sulfonyl)acetic acid]	10 µM
O=C(O)CSc1nc(Br)ccc1Br [compound 7124, [(3,6-dibromopyridin-2-yl)sulfanyl]acetic acid]	1 µM
CCOC(=O)CSc1nc(Cl)cs1 [compound 7112, ethyl [(4-chloro-1,3-thiazol-2-yl)sulfanyl]acetate]	10 µM
O=C(O)CNc1nc(Cl)cs1 [compound 7125, 2-[(4-chloro-1,3-thiazol-2-yl)amino]acetic acid]	10 µM
O=C(O)CCCCNc1nc(Br)c(Br)cc1F [compound 7170, 5-[(5,6-dibromo-3-fluoropyridin-2-yl)amino]pentanoic acid]	1 µM
COC(=O)Cc1ncsc1C#N [compound 7168, methyl 2-(5-cyano-1,3-thiazol-4-yl)acetate]	10 µM
O=C(O)CSc1nc(Cl)cs1 [compound 7109, 2-[(4-chloro-1,3-thiazol-2-yl)sulfanyl]acetic acid]	10 µM
CCOC(=O)c1c[nH]cc1CC#N [compound 7131, ethyl 4-(cyanomethyl)-1H-pyrrole-3-carboxylate]	10 µM
CCOCCOCCOC(=O)COc1ccc(Br)c(Br)n1 [compound 7172, 2-(2-ethoxyethoxy)ethyl [(5,6-dibromopyridin-2-yl)oxy]acetate]	1 µM
O=C(Cc1ccccc1)NCCCNc1cccc(Br)n1 [compound 7121, N-{3-[(6-bromopyridin-2-yl)amino]propyl}-2-phenylacetamide]	10 µM
CCCCCCCCOC(=O)CSc1cccc(Br)n1 [compound 7106, octyl [(6-bromopyridin-2-yl)sulfanyl]acetate]	10 µM
CCCCOC(=O)CSc1ccc(Br)c(Br)n1 [compound 6700, butyl [(5,6-dibromopyridin-2-yl)sulfanyl]acetate]	1 µM
O=C(O)CCCCSc1ccc(Br)c(Br)n1 [compound 7187, 5-[(5,6-dibromopyridin-2-yl)sulfanyl]pentanoic acid]	1 µM
O=C(O)CNc1cccc(Br)n1 [compound 6702, 2-[(6-bromopyridin-2-yl)amino]acetic acid]	1 µM
O=C(O)CNc1ccc(F)c(Br)n1 [compound 7148, 2-[(6-bromo-5-fluoropyridin-2-yl)amino]acetic acid]	10 µM
COC(=O)Cc1nc(Cl)sc1C#N [compound 7167, methyl 2-(2-chloro-5-cyano-1,3-thiazol-4-yl)acetate]	10 µM
O=C(O)CNc1c(Cl)csc1Cl [compound 7147, 2-[(2,4-dichlorothiophen-3-yl)amino]acetic acid hydrochloride]	10 µM
O=C(O)CSc1cccc(Br)n1 [compound 6688, [(6-bromopyridin-2-yl)sulfanyl]acetic acid]	1 µM
CCOC(=O)CSc1nc(Br)ccc1F [compound 7160, ethyl 2-[(6-bromo-3-fluoropyridin-2-yl)sulfanyl]acetate]	< 1 µM
O=C(O)CNc1ccc(Br)c(Br)n1 [compound 7122, 2-[(5,6-dibromopyridin-2-yl)amino]acetic acid]	1 µM
O=C(O)CS(=O)(=O)c1csc(Cl)n1 [compound 5851, (2-chloro-1,3-thiazol-4-sulfonyl)acetic acid]	1 µM

Structure (SMILES)	minimal effective concentration
CCOC(=O)CSc1nc(Cl)sc1Cl [compound 7119, ethyl 2-[(2,5-dichloro-1,3-thiazol-4-yl)sulfanyl]acetate]	10 µM
CCOC(=O)CSc1cccc(Br)n1 [compound 6693, ethyl [(6-bromopyridin-2-yl)sulfanyl]acetate]	1 µM
CCOC(=O)Cc1ccc(F)c(Br)n1 [compound 7117, ethyl (6-bromo-5-fluoropyridin-2-yl)acetate]	10 µM
CCOC(=O)Sc1csc(Cl)n1 [compound 7189, S-(2-chloro-1,3-thiazol-4-yl) O-ethyl carbonothioate]	10 µM
CCCCOC(=O)CSc1nc(Cl)ccc1Br [compound 6694, butyl [(3-bromo-6-chloropyridin-2-yl)sulfanyl]acetate]	1 µM
CCOC(=O)C(Cl)(Cl)c1csc(Cl)n1 [compound 7188, ethyl dichloro(2-chloro-1,3-thiazol-4-yl)acetate]	100 µM
CCCCOC(=O)C[S+]([O-])c1ccc(Br)c(Br)n1 (stereo not shown) [compound 6703, butyl (5,6-dibromopyridine-2-sulfinyl)acetate]	10 µM
O=C(O)CNc1nc(Br)c(Br)cc1F [compound 7169, 2-[(5,6-dibromo-3-fluoropyridin-2-yl)amino]acetic acid]	1 µM
NCCCCNc1ccc(Br)c(Br)n1 [compound 6709, N1-(5,6-dibromopyridin-2-yl)butane-1,4-diamine]	10 µM
CCOCCOCCOC(=O)CSc1ccc(Br)c(Br)n1 [compound 7139, 2-(2-ethoxyethoxy)ethyl [(5,6-dibromopyridin-2-yl)sulfanyl]acetate]	1 µM
O=C(O)CCCCNc1ccc(F)c(Br)n1 [compound 7165, 5-[(6-bromo-5-fluoropyridin-2-yl)amino]pentanoic acid]	10 µM
CCOC(=O)CSc1csc(Cl)n1 [compound 5850, ethyl 2-[(2-chloro-1,3-thiazol-4-yl)sulfanyl]acetate]	10 µM
O=C(O)CC#Cc1nc(Cl)sc1Cl [compound 7145, 4-(2,5-dichloro-1,3-thiazol-4-yl)but-3-ynoic acid]	1 µM
O=C(O)CCSc1ccc(Br)c(Br)n1 [compound 7178, 3-[(5,6-dibromopyridin-2-yl)sulfanyl]propanoic acid]	1 µM
O=C(O)c1csc(Cl)n1 [compound 7194, 2-chloro-1,3-thiazole-4-carboxylic acid]	100 µM
CC(Sc1ccc(Br)c(Br)n1)C(=O)O (stereo not shown) [compound 7182, 2-[(5,6-dibromopyridin-2-yl)sulfanyl]propanoic acid]	10 µM
CCOC(=O)CSc1ccc(F)c(Br)n1 [compound 7114, ethyl 2-[(6-bromo-5-fluoropyridin-2-yl)sulfanyl]acetate]	< 1 µM
O=C(O)C[S+]([O-])c1nc(Cl)sc1Cl (stereo not shown) [compound 7137, (2,5-dichloro-1,3-thiazole-4-sulfinyl)acetic acid]	10 µM
O=C(O)CCCSc1ccc(Br)c(Br)n1 [compound 7174, 4-[(5,6-dibromopyridin-2-yl)sulfanyl]butanoic acid]	< 1 µM
O=C(O)CSc1ccc(F)c(Br)n1 [compound 7151, [(6-bromo-5-fluoropyridin-2-yl)sulfanyl]acetic acid]	< 1 µM

Same assay, conditions: lowest concentration causing malformation of radicle or shoots; visually assessed six days after beginning; 0 to 1 mmol/l

Structure (SMILES)	activity score
O=C(Cc1ccccc1)NCCCCNc1cccc(Br)n1 [compound 7123, N-{4-[(6-bromopyridin-2-y1)amino]butyl}-2-phenylacetamide]	4 (0.01 mM)

System: Abutilon
Experiment: Post-emergence herbicidal effect on potted weeds
Format: in vivo
Conditions: 2-3 true leaves, up to 5 mg/pot, scale 0 (dead plants) to 5 (healthy, as control)
Experimental: (§1) Weed seeds were sawn in 0.3-liter pots containing medium-heavy clay-loam soil from organic fields (55% clay, 23% silt, 20% sand, 2% organic matter, pH 7.1). The experiment was conducted in a completely randomized design. Each treatment was replicated three times (3 pots). Each compound was typically tested on a weed panel which included Amaranth, Abutilon, Malva, Silybum, and Sinapis. The herbicides were applied at doses from 0 (control) to 5 mg/pot. The herbicides were applied on grown plants at stage 2-3 true leaves (post-emergence treatment). The plants were grown in the mesh house during the entire experiment. Plant development at 6, 12, 19, 26, and 32 days after application (DAA) was evaluated on a scale of 0 to 5, in which 0 represents dead plants, and 5 represents healthy plants similar or not different from Control. In the context of the invention, the herbicidal effect was expressed as a score calculated as an average of assessments of plants' vigor, height, and leaf color.

Structure (SMILES)	Average Herbicidal Effect, score
CCOC(=O)CSc1ccc(F)c(Br)n1 [compound 7114, ethyl 2-[(6-bromo-5-fluoropyridin-2-yl)sulfanyl]acetate]	5

System: Amaranth
Experiment: Post-emergence herbicidal effect on potted weeds
Format: in vivo
Conditions: 2-3 true leaves, up to 5 mg/pot, scale 0 (dead plants) to 5 (healthy, as control)
Experimental: as §1

Structure (SMILES)	Average Herbicidal Effect, score
CCOC(=O)CSc1ccc(F)c(Br)n1 [compound 7114, ethyl 2-[(6-bromo-5-fluoropyridin-2-yl)sulfanyl]acetate]	3

System: Lactuca
Experiment: Post-emergence herbicidal effect on potted weeds
Format: in vivo
Conditions: 2-3 true leaves, up to 5 mg/pot, scale 0 (dead plants) to 5 (healthy, as control)
Experimental: as §1

Structure (SMILES)	Average Herbicidal Effect, score
CCOC(=O)CSc1ccc(F)c(Br)n1 [compound 7114, ethyl 2-[(6-bromo-5-fluoropyridin-2-yl)sulfanyl]acetate]	5

System: Malva
Experiment: Post-emergence herbicidal effect on potted weeds
Format: in vivo
Conditions: 2-3 true leaves, up to 5 mg/pot, scale 0 (dead plants) to 5 (healthy, as control)
Experimental: as §1

Structure (SMILES)	Average Herbicidal Effect, score
CCOC(=O)CSc1ccc(F)c(Br)n1 [compound 7114, ethyl 2-[(6-bromo-5-fluoropyridin-2-yl)sulfanyl]acetate]	4

System: Silybum
Experiment: Post-emergence herbicidal effect on potted weeds
Format: in vivo
Conditions: 2-3 true leaves, up to 5 mg/pot, scale 0 (dead plants) to 5 (healthy, as control)
Experimental: as §1

Structure (SMILES)	Average Herbicidal Effect, score
CCOC(=O)CSc1ccc(F)c(Br)n1 [compound 7114, ethyl 2-[(6-bromo-5-fluoropyridin-2-yl)sulfanyl]acetate]	5

System: Sinapis
Experiment: Post-emergence herbicidal effect on potted weeds
Format: in vivo
Conditions: 2-3 true leaves, up to 5 mg/pot, scale 0 (dead plants) to 5 (healthy, as control)
Experimental: as §1

Structure (SMILES)	Average Herbicidal Effect, score
CCOC(=O)CSc1ccc(F)c(Br)n1 [compound 7114, ethyl 2-[(6-bromo-5-fluoropyridin-2-yl)sulfanyl]acetate]	4

System: Trifolium
Experiment: Post-emergence herbicidal effect on potted weeds
Format: in vivo
Conditions: 2-3 true leaves, up to 5 mg/pot, scale 0 (dead plants) to 5 (healthy, as control)
Experimental: as §1

Structure (SMILES)	Average Herbicidal Effect, score
CCOC(=O)CSc1ccc(F)c(Br)n1 [compound 7114, ethyl 2-[(6-bromo-5-fluoropyridin-2-yl)sulfanyl]acetate]	4
